For one series, the target named is Cytochrome P450 3A4 (Homo sapiens, UniProt P08684). The series is described as follows: Inhibition of hepatic CYP3A4 (unknown origin). It is filed as ADME.
Series [1] is described as follows: Intrinsic clearance in rat liver microsomes at […] preincubated for 10 mins followed by NADPH addition measured after 45 mins by LC-MS analysis. It counts as ADME, microsome. The note with it: read-out: CLH.
A short description of series [2]: Selectivity ratio of IC50 for human CYP11B1-8C7 expressed in Chinese hamster V79 cells to IC50 for human CYP11B2-CLE9 expressed in Chinese hamster V79 cells.
A short description of series [3]: Oral bioavailability in Sprague-Dawley rat at 2 mg/kg administered via gavage by LC-MS/MS analysis. It is filed as ADME, organism-based. The note with it: in vivo.
Another series relates to Rattus norvegicus. The series is described as follows: Dose normalized AUC in Sprague-Dawley rat at 2 mg/kg, po administered via gavage by LC-MS/MS analysis. It counts as ADME, organism-based. The note with it: in vivo.
Another series addresses Cytochrome P450 2C9 (Homo sapiens, UniProt P11712). Nature of the series: Inhibition of hepatic CYP2C9 (unknown origin). It is filed as ADME.
Series [4] can be described thus: Volume of distribution in Sprague-Dawley rat at 1 mg/kg, iv or 2 mg/kg, po administered via gavage by LC-MS/MS analysis. It counts as ADME, organism-based. As to conditions: in vivo.
The target in series [5] is T1, Cytochrome P450 11B2, mitochondrial (Rattus norvegicus, UniProt P30099).
T1 sequence (P30099 whole entry): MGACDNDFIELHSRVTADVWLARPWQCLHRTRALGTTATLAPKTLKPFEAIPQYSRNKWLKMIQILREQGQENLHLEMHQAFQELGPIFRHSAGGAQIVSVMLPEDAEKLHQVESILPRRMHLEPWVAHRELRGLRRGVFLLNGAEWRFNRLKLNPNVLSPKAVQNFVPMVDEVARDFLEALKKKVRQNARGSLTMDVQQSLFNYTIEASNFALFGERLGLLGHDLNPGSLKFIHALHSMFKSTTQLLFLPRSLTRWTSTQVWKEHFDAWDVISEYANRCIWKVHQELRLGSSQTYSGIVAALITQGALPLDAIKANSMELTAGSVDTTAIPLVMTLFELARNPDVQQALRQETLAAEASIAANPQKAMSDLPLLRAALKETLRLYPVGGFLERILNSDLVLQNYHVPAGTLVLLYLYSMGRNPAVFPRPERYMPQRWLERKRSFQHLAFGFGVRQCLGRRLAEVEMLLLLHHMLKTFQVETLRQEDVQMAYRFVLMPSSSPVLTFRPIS
The series is described as follows: Inhibition of rat CYP11B2-1F4 expressed in Chinese hamster V79 cells using 11-deoxycorticosterone as substrate preincubated for 1 hr followed by substrate addition measured for 3 hrs by HTRF assay. It counts as cell-based.

The nature of series [6]: Selectivity ratio of IC50 for hepatic CYP2C9 (unknown origin) to IC50 for human CYP11B2-CLE9 expressed in Chinese hamster V79 cells.
For the next series, the target named is Cytochrome P450 2D6 (Homo sapiens, UniProt P10635). Nature of the series: Inhibition of hepatic CYP2D6 (unknown origin). It counts as ADME.
Chain of Cytochrome P450 2D6 (P10635 whole entry): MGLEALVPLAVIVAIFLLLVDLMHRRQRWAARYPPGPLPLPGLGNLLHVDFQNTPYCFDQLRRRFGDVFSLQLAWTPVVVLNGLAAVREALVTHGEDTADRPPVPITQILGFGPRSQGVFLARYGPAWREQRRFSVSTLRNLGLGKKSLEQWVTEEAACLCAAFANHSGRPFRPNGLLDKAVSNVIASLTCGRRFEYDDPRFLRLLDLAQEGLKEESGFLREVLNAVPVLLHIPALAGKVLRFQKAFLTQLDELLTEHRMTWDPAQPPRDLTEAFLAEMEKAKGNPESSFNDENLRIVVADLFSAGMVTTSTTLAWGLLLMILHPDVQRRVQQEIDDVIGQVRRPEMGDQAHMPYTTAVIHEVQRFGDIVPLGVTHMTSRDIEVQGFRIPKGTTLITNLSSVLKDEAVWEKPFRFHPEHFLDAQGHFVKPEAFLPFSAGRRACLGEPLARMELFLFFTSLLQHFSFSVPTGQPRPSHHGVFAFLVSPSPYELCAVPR
In series [7] the target is T2, Steroid 17-alpha-hydroxylase/17,20 lyase (Homo sapiens, UniProt P05093).
T2 sequence (P05093 whole entry): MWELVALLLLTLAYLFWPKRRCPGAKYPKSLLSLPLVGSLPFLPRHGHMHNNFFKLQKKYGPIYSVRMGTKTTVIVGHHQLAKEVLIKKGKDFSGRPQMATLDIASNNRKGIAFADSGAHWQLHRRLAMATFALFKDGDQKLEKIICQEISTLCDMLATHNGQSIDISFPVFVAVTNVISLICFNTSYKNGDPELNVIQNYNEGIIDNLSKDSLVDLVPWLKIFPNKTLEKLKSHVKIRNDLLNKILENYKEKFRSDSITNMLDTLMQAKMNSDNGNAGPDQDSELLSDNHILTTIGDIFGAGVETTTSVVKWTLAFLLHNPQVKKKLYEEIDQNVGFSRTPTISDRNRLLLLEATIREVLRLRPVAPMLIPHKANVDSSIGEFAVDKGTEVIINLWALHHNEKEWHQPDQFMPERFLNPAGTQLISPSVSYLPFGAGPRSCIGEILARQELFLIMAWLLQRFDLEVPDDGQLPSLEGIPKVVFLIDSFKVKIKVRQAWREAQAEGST
Nature of the series: Inhibition of human CYP17 expressed in African green monkey COS7 cells using 17-hydroxypregnenolone as substrate preincubated for 1 hr followed by substrate addition measured after 3 hrs by EIA. It counts as cell-based.

Series [8] in a line: Plasma clearance in Sprague-Dawley rat at 1 mg/kg, iv or 2 mg/kg, po administered via gavage by LC-MS/MS analysis. It is filed as ADME, organism-based.
Series [9] is described as follows: Half life in Sprague-Dawley rat at 1 mg/kg, iv or 2 mg/kg, po administered via gavage by LC-MS/MS analysis. It is filed as ADME, organism-based. The note with it: in vivo.
A further series concerns the target T3, Steroid 21-hydroxylase (Homo sapiens, UniProt P08686).
T3 sequence (P08686 whole entry): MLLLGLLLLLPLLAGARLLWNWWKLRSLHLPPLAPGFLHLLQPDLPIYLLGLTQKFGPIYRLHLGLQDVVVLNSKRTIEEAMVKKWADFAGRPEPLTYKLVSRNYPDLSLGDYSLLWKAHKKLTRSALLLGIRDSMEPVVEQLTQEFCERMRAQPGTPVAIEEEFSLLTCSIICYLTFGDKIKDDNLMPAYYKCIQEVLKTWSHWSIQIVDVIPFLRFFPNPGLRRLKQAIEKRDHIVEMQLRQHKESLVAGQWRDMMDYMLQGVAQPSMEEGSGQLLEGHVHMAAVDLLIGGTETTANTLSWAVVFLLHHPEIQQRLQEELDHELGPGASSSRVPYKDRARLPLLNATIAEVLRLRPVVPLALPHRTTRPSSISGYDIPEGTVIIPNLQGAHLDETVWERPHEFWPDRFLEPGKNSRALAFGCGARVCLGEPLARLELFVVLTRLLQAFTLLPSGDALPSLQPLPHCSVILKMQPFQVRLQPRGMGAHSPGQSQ
The series is described as follows: Inhibition of human CYP21 expressed in African green monkey COS7 cells using […] as substrate preincubated for 1 hr followed by substrate addition measured for 3 hrs by HTRF assay. It counts as cell-based.

These results are taken from ChEMBL document CHEMBL4028827, “Discovery of indazole aldosterone synthase (CYP11B2) inhibitors as potential treatments for hypertension” (Bioorg Med Chem Lett, 2017).

SMILES strings stand for the structures.

Chain of Cytochrome P450 3A4 (P08684 whole entry): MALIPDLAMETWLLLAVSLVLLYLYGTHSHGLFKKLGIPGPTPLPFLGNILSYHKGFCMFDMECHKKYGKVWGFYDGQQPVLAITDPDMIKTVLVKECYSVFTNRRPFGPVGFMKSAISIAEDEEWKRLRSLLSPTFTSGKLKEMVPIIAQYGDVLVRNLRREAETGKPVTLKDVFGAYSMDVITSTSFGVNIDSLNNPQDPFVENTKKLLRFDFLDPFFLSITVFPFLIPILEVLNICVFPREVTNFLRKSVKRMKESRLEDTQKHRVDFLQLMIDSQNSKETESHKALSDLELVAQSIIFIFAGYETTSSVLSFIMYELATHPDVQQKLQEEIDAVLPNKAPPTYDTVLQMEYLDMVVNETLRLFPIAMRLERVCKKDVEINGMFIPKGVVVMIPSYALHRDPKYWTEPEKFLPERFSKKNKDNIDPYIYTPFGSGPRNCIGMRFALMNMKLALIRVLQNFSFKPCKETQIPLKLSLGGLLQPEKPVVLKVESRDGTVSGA
Chain of Cytochrome P450 2C9 (P11712 whole entry): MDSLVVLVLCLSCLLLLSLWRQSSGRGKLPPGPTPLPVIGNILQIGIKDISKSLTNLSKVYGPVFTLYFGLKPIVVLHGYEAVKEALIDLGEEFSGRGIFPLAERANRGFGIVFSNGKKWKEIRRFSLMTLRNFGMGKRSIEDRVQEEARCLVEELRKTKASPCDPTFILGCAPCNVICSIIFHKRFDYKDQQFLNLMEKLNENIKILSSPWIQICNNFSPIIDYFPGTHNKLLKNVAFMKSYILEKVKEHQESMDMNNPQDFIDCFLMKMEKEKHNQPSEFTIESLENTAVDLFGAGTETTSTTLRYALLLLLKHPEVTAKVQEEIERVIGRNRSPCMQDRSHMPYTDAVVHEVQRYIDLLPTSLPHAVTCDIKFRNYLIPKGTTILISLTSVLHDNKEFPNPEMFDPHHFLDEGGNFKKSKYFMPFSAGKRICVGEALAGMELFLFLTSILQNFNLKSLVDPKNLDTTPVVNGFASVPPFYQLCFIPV

In the case of `CC(C)(O)c1cncc(-n2ncc3c(C(F)(F)F)cccc32)c1`, the IC50 against Cytochrome P450 3A4 is 43 µM; on Cytochrome P450 2C9, 9.1 µM; in series [5] it was 0.0022 µM; on Cytochrome P450 2D6, 2.8 µM; in series [7], above 10 µM; against Steroid 21-hydroxylase it was above 10 µM. For the same molecule, the CLint scaled in series [1] was below 20 mL/min/kg. Further, the “Ratio IC50” value in series [2] is listed as 44; in series [6] it was above 4000. Further, in series [3], the bioavailability worked out at 28%. Moreover, the AUC/dose in the series on Rattus norvegicus is 0.85 µM·kg·h/mg. This molecule registered a Vd in series [4] of 6.3 L/kg. In addition, the clearance in [8] is 14 mL/min/kg. For the same molecule, the half-life in series [9] was 7.6 h.
